According to US9512117B2 (priority 2010, dated 2016):

What was measured:
Phytophthora infestans = format: in vivo; settings: young tomato plants, protective spray, 100 ppm active ingredient, evaluation 7 days after inoculation; 0% = control, 100% = no infection
Plasmopara viticola = assay: Plasmopara test (grapevine) / protective; format: in vivo; settings: young grapevine plants, protective spray, 10 ppm active ingredient, evaluation 6 days after inoculation; 0% = control, 100% = no infection
Procedure: Plasmopara Test (Grapevine)/Protective
• Solvent: 24.5 parts by weight of acetone • 24.5 parts by weight of dimethylacetamide • Emulsifier: 1 part by weight of alkylaryl polyglycol ether
To produce a suitable active ingredient formulation, 1 part by weight of active ingredient is mixed with the stated amounts of solvent and emulsifier, and the concentrate is diluted with water to the desired concentration.
To test for protective efficacy, young plants are sprayed with the active ingredient formulation at the stated application rate. After the spray coating has dried on, the plants are inoculated with an aqueous spore suspension of Plasmopara viticola and then remain in an incubation cabin at approx. 20° C. and 100% relative air humidity for 1 day. Subsequently, the plants are placed in a greenhouse at approx. 21° C. and approx. 90% air humidity for 4 days. The plants are then moistened and placed in an incubation cabin for 1 day.
Evaluation follows 6 days after the inoculation. 0% means an efficacy which corresponds to that of the control, whereas an efficacy of 100% means that no infection is observed.
In this test, the following inventive compounds show, at an active ingredient concentration of 10 ppm, an efficacy of 70% or more: […]

[1] = logP by HPLC on reversed-phase columns (C 18), EEC directive 79/831 Annex V.A8; format: physicochemical; settings: LC-MS; for Log P [b]: neutral range, pH 7.8, 0.001 molar aqueous ammonium hydrogencarbonate and acetonitrile
Procedure: The logP values were measured according to EEC directive 79/831 Annex V.A8 by HPLC (High Performance Liquid Chromatography) on reversed-phase columns (C 18), using the methods below:
^[a] The LC-MS determination in the acidic range is effected at pH 2.7 with 0.1% aqueous formic acid and acetonitrile (contains 0.1% formic acid) as eluents; linear gradient from 10% acetonitrile to 95% acetonitrile.
^[b] The LC-MS determination in the neutral range is effected at pH 7.8 using 0.001 molar aqueous ammonium hydrogencarbonate solution and acetonitrile as eluents; linear gradient from 10% acetonitrile to 95% acetonitrile.
The calibration is effected with unbranched alkan-2-ones (having 3 to 16 carbon atoms) with known logP values (logP values determined on the basis of the retention times by linear interpolation between two successive alkanones).

[2] = acidic range, pH 2.7, 0.1% aqueous formic acid and acetonitrile

C=CCOc1ccc(F)c(C2CC(c3csc(C4CCN(C(=O)Cn5nc(C(F)(F)F)cc5C)CC4)n3)=NO2)c1F (stereo not drawn) [Ex. 19]
Eff. % (Phytophthora infestans): 98%
Eff. % (Plasmopara viticola): 98%

Cc1cc(C(F)(F)F)nn1CC(=O)N1CCC(c2nc(C3=NOC(c4ccccc4COCC(F)(F)F)C3)cs2)CC1 (racemic) [Ex. 43]
Log P [a] [1, 2]: 3.77[a]
Eff. % (Phytophthora infestans): 97%
Eff. % (Plasmopara viticola): 83%

C=CCOc1ccccc1C1CC(c2csc(C3CCN(C(=O)Nc4cc(C)ccc4C)CC3)n2)=NO1 (racemic) [Ex. 46]
Log P [a] [1, 2]: 3.91[a];
Log P [b] [1]: 3.81[b]
Eff. % (Phytophthora infestans): 100%
Eff. % (Plasmopara viticola): 98%

C#CCOc1cccc(C2CC(c3csc(C4CCN(C(=O)Cn5nc(C(F)(F)F)cc5C)CC4)n3)=NO2)c1 (stereo not drawn) [Ex. 10]
Log P [a] [1, 2]: 3.49[a];
Log P [b] [1]: 3.3[b]

Cc1cc(C(F)(F)F)nn1CC(=O)N1CCC(c2nc(C3=NOC(c4ccccc4OCC4CC4)C3)cs2)CC1 (stereo not drawn) [Ex. 17]
Log P [a] [1, 2]: 4.03[a]
Eff. % (Plasmopara viticola): 92%

C#CCOc1cc(Cl)ccc1C1CC(c2csc(C3CCN(C(=O)Cn4nc(C(F)F)cc4C)CC3)n2)=NO1 (stereo not drawn) [Ex. 20]
Log P [a] [1, 2]: 3.37[a];
Log P [b] [1]: 3.36[b]

Cc1cc(C(F)(F)F)nn1CC(=O)N1CCC(c2nc(C3=NOC(c4ccccc4CS(C)(=O)=O)C3)cs2)CC1 (racemic) [Ex. 34]
Log P [a] [1, 2]: 2.6[a]
Eff. % (Phytophthora infestans): 100%
Eff. % (Plasmopara viticola): 84%

COCCOc1ccccc1C1CC(c2csc(C3CCN(C(=O)Cn4nc(C(F)(F)F)cc4C)CC3)n2)=NO1 (racemic) [Ex. 55]
Log P [a] [1, 2]: 3.27[a];
Log P [b] [1]: 3.25[b]
Eff. % (Phytophthora infestans): 92%
Eff. % (Plasmopara viticola): 93%

Cc1cc(C(F)(F)F)nn1CC(=O)N1CCC(c2nc(C3=NOC(c4cccc(C=O)c4)C3)cs2)CC1 (stereo not drawn) [Ex. 1]
Log P [a] [1, 2]: 2.83[a]
Eff. % (Phytophthora infestans): 100%
Eff. % (Plasmopara viticola): 98%

C#CCOc1cc(Cl)cc(Cl)c1C1CC(c2csc(C3CCN(C(=O)Cn4nc(C(F)F)cc4C)CC3)n2)=NO1 (stereo not drawn) [Ex. 21]
Log P [a] [1, 2]: 3.66[a];
Log P [b] [1]: 3.57[b]

C#CCOc1ccccc1C1CC(c2csc(C3CCN(C(=O)Cn4nc(C)cc4C(F)F)CC3)n2)=NO1 (stereo not drawn) [Ex. 29]
Log P [a] [1, 2]: 3.03[a]
Eff. % (Phytophthora infestans): 100%
Eff. % (Plasmopara viticola): 100%

CS(=O)(=O)Nc1ccccc1C1CC(c2csc(C3CCN(C(=O)Cc4cc(C(F)F)ccc4C(F)F)CC3)n2)=NO1 (stereo not drawn) [Ex. 4, N-(2-{3-[2-(1-{[2,5-Bis(difluoromethyl)phenyl]acetyl}piperidin-4-yl)-1,3-thiazol-4-yl]-4,5-dihydro-1,2-oxazol-5-yl}phenyl)methanesulphonamide]
chromatographic logP ([1]; reversed-phase HPLC column (C18), acidic range, pH 2.7, 0.1% aqueous formic acid and acetonitrile, read-out: Log P [a]): 2.81
Eff. % (Phytophthora infestans): 95%
Eff. % (Plasmopara viticola): 95%

C=CCOc1ccccc1C1CC(c2csc(C3CCN(C(=O)Cn4nc(C)cc4C(F)F)CC3)n2)=NO1 (stereo not drawn) [Ex. 18]
Log P [a] [1, 2]: 3.42[a];
Log P [b] [1]: 3.33[b]
Eff. % (Phytophthora infestans): 100%
Eff. % (Plasmopara viticola): 95%

COCCOCc1ccccc1C1CC(c2csc(C3CCN(C(=O)Cn4nc(C(F)(F)F)cc4C)CC3)n2)=NO1 (racemic) [Ex. 44]
Log P [a] [1, 2]: 3.28[a]
Eff. % (Phytophthora infestans): 94%

C=CCOc1cccc(F)c1C1CC(c2csc(C3CCN(C(=O)Cn4nc(C(F)(F)F)cc4C)CC3)n2)=NO1 (racemic) [Ex. 51]
Log P [a] [1, 2]: 3.7[a];
Log P [b] [1]: 3.61[b]
Eff. % (Phytophthora infestans): 85%
Eff. % (Plasmopara viticola): 100%

CC#CCOc1cc(OC)ccc1C1CC(c2csc(C3CCN(C(=O)Cn4nc(C(F)F)cc4C)CC3)n2)=NO1 (stereo not drawn) [Ex. 15]
Log P [a] [1, 2]: 3.28[a]

C#CCOc1c(F)cccc1C1CC(c2csc(C3CCN(C(=O)Cn4nc(C(F)(F)F)cc4C)CC3)n2)=NO1 (stereo not drawn) [Ex. 9]
Eff. % (Phytophthora infestans): 94%
Eff. % (Plasmopara viticola): 100%

O=C(Oc1ccccc1C1CC(c2csc(C3CCN(C(=O)Cn4nc(C(F)(F)F)cc4C(F)(F)F)CC3)n2)=NO1)C1CC1 (stereo not drawn) [Ex. 14]
Log P [a] [1, 2]: 4.04[a]

Cc1cc(C(F)(F)F)nn1CC(=O)N1CCC(c2nc(C3=NOC(c4ccccc4C[S+](C)[O-])C3)cs2)CC1 (mixture of isomers) [Ex. 35]
Log P [a] [1, 2]: 2.34[a]
Eff. % (Phytophthora infestans): 100%

C=CCOc1cc(C)ccc1C1CC(c2csc(C3CCN(C(=O)Cn4nc(C(F)F)cc4C)CC3)n2)=NO1 (stereo not drawn) [Ex. 22]
Log P [a] [1, 2]: 3.62[a];
Log P [b] [1]: 3.66[b];

COc1ccc(C2CC(c3csc(C4CCN(C(=O)Cn5nc(C(F)F)cc5C)CC4)n3)=NO2)c(OCC2CC2)c1 (stereo not drawn) [Ex. 27]
Log P [a] [1, 2]: 3.5[a]

CC[S+]([O-])Cc1ccccc1C1CC(c2csc(C3CCN(C(=O)Cn4nc(C(F)(F)F)cc4C)CC3)n2)=NO1 (mixture of isomers) [Ex. 36]
Log P [a] [1, 2]: 2.53[a]
Eff. % (Phytophthora infestans): 100%

C#CCOc1cc(C)ccc1C1CC(c2csc(C3CCN(C(=O)Cn4nc(C(F)F)cc4C)CC3)n2)=NO1 (stereo not drawn) [Ex. 23]
Log P [a] [1, 2]: 3.23[a];
Log P [b] [1]: 3.23[b];

Cc1cc(C(F)F)nn1CC(=O)N1CCC(c2nc(C3=NOC(c4c(F)cccc4OCC4CC4)C3)cs2)CC1 (stereo not drawn) [Ex. 28]
Log P [a] [1, 2]: 3.44[a]

C#CCOc1cc(C)ccc1C1CC(c2csc(C3CCN(C(=O)Cn4nc(C(F)(F)F)cc4C)CC3)n2)=NO1 (stereo not drawn) [Ex. 26]
Log P [a] [1, 2]: 3.67[a];
Log P [b] [1]: 3.61[b]
Eff. % (Phytophthora infestans): 100%

C=CCOc1cc(Cl)cc(Cl)c1C1CC(c2csc(C3CCN(C(=O)Cn4nc(C(F)F)cc4C)CC3)n2)=NO1 (stereo not drawn) [Ex. 24]
Log P [a] [1, 2]: 3.95[a];
Log P [b] [1]: 3.97[b];

Cc1cc(C(F)(F)F)nn1CC(=O)N1CCC(c2nc(C3=NOC(c4ccccc4NS(C)(=O)=O)C3)cs2)CC1 (stereo not drawn) [Ex. 5, N-(2-{3-[2-(1-{[5-Methyl-3-(trifluoromethyl)-1H-pyrazol-1-yl]acetyl}piperidin-4-yl)-1,3-thiazol-4-yl]-4,5-dihydro-1,2-oxazol-5-yl}phenyl)methanesulphonamide]
Eff. % (Phytophthora infestans): 95%
Eff. % (Plasmopara viticola): 84%

O=C(Cn1nc(C(F)(F)F)cc1C(F)(F)F)N1CCC(c2nc(C3=NOC(c4ccccc4OCC4CC4)C3)cs2)CC1 (stereo not drawn) [Ex. 16]
Log P [a] [1, 2]: 4.59[a]
Eff. % (Plasmopara viticola): 96%

C#CCOc1ccc(F)c(C2CC(c3csc(C4CCN(C(=O)Cn5nc(C(F)(F)F)cc5C)CC4)n3)=NO2)c1F (stereo not drawn) [Ex. 8]
Eff. % (Phytophthora infestans): 100%
Eff. % (Plasmopara viticola): 100%

C#CCOc1cccc(F)c1C1CC(c2csc(C3CCN(C(=O)Cn4nc(C(F)F)cc4C)CC3)n2)=NO1 (stereo not drawn) [Ex. 31]
Log P [a] [1, 2]: 2.92[a]
